Measured values reported in patent publication US20210007985A1, “LIPOSOMAL ANTI-INFECTIVE FORMULATIONS TO INHIBIT NON-TUBERCULOUS MYCOBACTERIA (NTM) MICROAGGREGATE FORMATION AND ESTABLISHMENT OF NTM BIOFILM” (ARADIGM CORPORATION, priority 2017, published 2021).
Converted amounts (≈) assume the structure as drawn.

What was measured:
M. avium MAC 104 = assay: Antimicrobial susceptibility (MIC, microdilution) of MAC 104 before and after treatment; format: cell-based; conditions: Mycobacterium avium, MAC104, read-out: MIC of M. avium to ciprofloxacin, before and after treatment
M. avium 109 = assay: Activity against M. avium 109 in human macrophage (THP-1) model; format: cell-based; conditions: M. avium 109 in THP-1 macrophages; 20 μg/mL for 4 days
[1] = tested on: M. avium (MAC Strain 104); assay: M. avium mouse lung infection model over 6 weeks; format: in vivo, mice; conditions: 1 mg/kg; 3 and 6 weeks
M. avium microaggregates = assay: Electron micrographs of M. avium microaggregates on epithelial cell monolayer (FIG. 1); format: cell-based; conditions: 300 μg/mL; treatment added at t=0 h; growth over 24 h
From the text: FIG. 1 consists of FIGS. 1A, 1B, 1C, 1D and 1E.

M. avium = conditions: Inderlied et al, 1989; cited from earlier work
M. avium 101 = assay: Activity against M. avium 101 in human macrophage (THP-1) model; format: cell-based
M. avium biofilm = conditions: incubation of M. avium with antibiotic; McNabe et al. 2012; cited from earlier work

Compound: O=C(O)c1cn(C2CC2)c2cc(N3CCNCC3)c(F)cc2c1=O [Ciprofloxacin]
- MIC (M. avium MAC 104): 8 mg/L
- CFU Day 4 (M. avium 109): 1.1 ± 0.4 × 10^4 CFU
- statistical effect on lung CFU [1]: did not have a statistically significant effect
- microaggregate formation in electron micrographs (M. avium microaggregates): much less microaggregate formation than control
- minimum inhibitory concentration (MIC) (M. avium): 5 mg/L (≈ 15.1 µM)
- statistical effect on CFU in macrophages (M. avium 101; M. avium 101 and 109, 20 μg/ml, Day 4 vs Day 0): did not have a statistically significant effect
- CFU Day 0 (M. avium 101; M. avium 101 in THP-1 macrophages, initial infecting load before treatment at 20 μg/mL): 7 ± 0.2 × 10^4 CFU

Compound: CC1(C)S[C@@H]2[C@H](NC(=O)[C@H](N)c3ccccc3)C(=O)N2[C@H]1C(=O)O [ampicillin]
- effect on M. avium biofilm formation (M. avium biofilm): no effect on biofilm

Compound: [H]/N=C(/N)N[C@H]1[C@H](O)[C@@H](O)[C@H](O[C@@H]2O[C@@H](C)[C@](O)(C=O)[C@H]2O[C@@H]2O[C@@H](CO)[C@H](O)[C@@H](O)[C@@H]2NC)[C@@H](N/C(N)=N\[H])[C@@H]1O [streptomycin]
- effect on M. avium biofilm formation (M. avium biofilm): an increase, not decrease, in the biofilm formation

Compound: TMP/SMX
- effect on M. avium biofilm formation (M. avium biofilm): no effect on biofilm
